According to patent US6518295B1, “Utilization of aryl(or heteroaryl)azolylcarbinol derivatives in the preparation of a medicament for the treatment of troubles mediated by an excess of substance P” (Laboratorios del Dr. Esteve, S.A., priority 1998, dated 2003):
Read-outs that look alike come from different tables or passages of the source.

Assays:
Assay type in all cases: in vivo
[1] = test system: ptosis induced by reserpine; assay: Inhibition of ptosis induced by reserpine in mice
Description: (§1) In one the inhibition of ptosis induced by reserpine was studied, and in the other the effect on mobility in adverse situation was investigated.
2.1 Inhibition of Ptosis Induced by Reserpine in Mice:
The method used was that described by S.Garattini and co-workers (Med. Exp., 1960, 3, 315-320). The trial consists of observing the possible inhibition of ptosis induced by reserpine ([…], ip: intraperitoneal) in mice, after the products under study had been administered orally.
The activity of the (±)-5-{α-[2-(dimethylamino)ethoxy] benzyl}-1-methyl-1H-pyrazol citrate (example 191) administered orally at different doses has been determined.

[2] = test system: intrathecal release of substance P; assay: Effect on the spinal release of substance P in rats (intrathecal perfusion)
Description: Effect on the Spinal Release of Substance P in Rats:
The study was carried out in vivo, in rats anaesthetised with halothane. The trial consisted of intrathecal perfusion with an artificial cerebrospinal fluid, with a view to collecting the peptides released from the superficial layers of the spinal cord while the product under study is administered locally or systematically. The method used was that described by Collin, E. and co-workers (Naunyn-Schmiedeberg's Arch. Pharmacol., 1994, 349, 387-393).
The activity of the (±)-5-{α-[2-(dimethylamino)ethoxy] benzyl}-1-methyl-1H-pyrazol citrate (example 191) was studied, administered intrathecally in the perfusion liquid, at a concentration of 1 μM.
It is of note that the effect of the systematic administration of product on the intrathecal release of substance P lasted 2 hours, the average inhibition being 50% of the effect during this period.

[3] = test system: immobility time in adverse situation; assay: Effect on mobility in adverse situation (mice suspended by their tails, ITEMATIC-TST)
Excerpt: as §1
2.2 Effect on Mobility in Adverse Situation:
The method used was described by R. D. Porsolt and co-workers (Arch. Int. Pharmacodyn., 1987, 288, 11-30). The trial consists of suspending the mice by their tales for six minutes in an ITEMATIC-TST apparatus, which measures the mobility and the strength of the animals' movements. The animals exposed to this adverse situation, after a start with vigorous activity, become desperate and end up staying still.

CN(C)CCOC(c1ccccc1)c1ccnn1C.O=C(O)CC(O)(CC(=O)O)C(=O)O (racemic) [Example 191, (±)-5-{α-[2-(dimethylamino)ethoxy]benzyl}-1-methyl-1H-pyrazol citrate]
inhibition at 12 mg/kg ([1]; Mus musculus, 12 mg/kg, oral (dose as base)): 8%
inhibition at 23 mg/kg ([1]; Mus musculus, 23 mg/kg, oral (dose as base)): 30%
inhibition at 80 mg/kg ([1]; Mus musculus, 80 mg/kg, oral (dose as base)): 75%
inhibition at 92 mg/kg ([1]; Mus musculus, 92 mg/kg, oral (dose as base)): 84%
anti-depressive activity, inhibition of the effects of reserpine ([1]; oral, different doses): clear anti-depressive activity inhibiting the effects of reserpine with a good dose-response
SD-50 ([1]; oral, inhibition of ptosis induced by reserpine): 38.5 mg/kg, oral
inhibition at 1 µM ([2]; Rattus norvegicus, central, 1 μM, intrathecal, in the perfusion liquid, rats anaesthetised with halothane, read-out: % Inhibition, with respect to control, of intrathecal release of substance P): 58%
inhibition at 46 mg/kg ([2]; Rattus norvegicus, central, systematic administration (46 mg/kg), average during the 2 hours, read-out: average inhibition of intrathecal release of substance P): 50%
inhibition at 46 mg/kg ([2]; Rattus norvegicus, 46 mg/kg, ip, rats anaesthetised with halothane, read-out: % Inhibition, with respect to control, of intrathecal release of substance P): 50%
effect on release of substance P ([2]; intrathecally in the perfusion liquid, 1 μM): inhibited the release of substance P
duration of the effect on the intrathecal release of substance P ([2]; systematic administration (46 mg/kg)): 2 h
effect on release of substance P ([2]; systematic administration of 46 mg/kg): reduced the release of substance P
inhibition at 12 mg/kg ([3]; Mus musculus, mice, dose 12 mg/kg, oral): 20%
inhibition at 23 mg/kg ([3]; Mus musculus, mice, dose 23 mg/kg, oral): 30%
inhibition at 46 mg/kg ([3]; Mus musculus, mice, dose 46 mg/kg, oral): 41%
inhibition at 92 mg/kg ([3]; Mus musculus, mice, dose 92 mg/kg, oral): 69%
effect on the immobility period ([3]; mice suspended by their tails for six minutes): reducing the immobility period significantly and in a dose-dependent fashion
DE-50 (inhibition of immobility time in adverse situation) ([3]; mice, oral): 50.5 mg/kg, oral
